# Measurements taken from US20160051493A1, “METHODS OF TREATMENT OF KERATINOCYTE-DERIVED LESIONS” (THE TRUSTEES OF COLUMBIA UNIVERSITY IN THE CITY OF NEW YORK, priority 2012, published 2016).
# Entries after “also recorded” stand apart in the source; their conditions may differ. Read-outs that look alike come from different tables or passages of the source.
# What was measured:
# [1] = test system: normal human epidermal keratinocytes; experiment: Ratiometric fura-2 live-cell calcium imaging of keratinocytes; assay type: cell-based; conditions: for % Responders (undifferentiated) Mean ± SEM or SD: growth conditions, saturating agonist (4αPDD 3 μM, camphor 10 mM, 2-APB 100 μM, capsaicin 1 μM, mustard oil 300 μM), SD for capsaicin and mustard oil; for cytoplasmic Ca2+ signals in undifferentiated keratinocytes: 0.15%, within 1 minute of perfusion, versus vehicle
# Method: (§1) Normal human keratinocytes were isolated from human foreskins by undergoing two enzymatic dissociation steps, first in dispase then in trypsin. Cells were cultured in EpiLife supplemented with human keratinocyte growth supplement (HKGS; Invitrogen). For all experiments with undifferentiated cells, keratinocytes were harvested or images at ˜75% confluency. Differentiation was induced by adding CaCl2 to the EpiLife media to reach a final [Ca2+] of 1.2 mM. Cells were typically cultured for 3 days under differentiation conditions before they were assayed. Keratinocytes were cultured for <5 passages. Purified Camphor (CAS #76-22-2), 2-APB (Tocris) or vehicle (1% EtOH)-containing media were used as indicated.
# Human keratinocytes and SCC cells were washed in Ringer's solution (in mM: NaCl 140, KCl 5, D-glucose 10, HEPES 10, CaCl2 2, MgCl2 2, pH 7.2) and loaded with 5 μM fura-2AM and 1 μM pluronic (Invitrogen) for 30 minutes in the dark. During live-cell imaging, saturating concentrations of TRP agonists (10 mM Camphor, 100 μM 2-APB 1 μM Capsaicin, 300 μM Mustard oil or 3 μM 4αPDD) in Ringer's were used. Cells were imaged for 20 s to establish a baseline and then acutely treated with each agonist for 60 seconds. Imaging was performed on an Olympus IX81 microscope with a 20× (NA 0.17) objective and a Hamamatsu ORCA-R2 camera. 340- and 380-nm excitation and 540-nm emission filters were used to capture fura-2 fluorescence. Data are expressed as a ratio of fluorescent signals (340/380). All data acquisition was performed in MetaFluor. Data analysis was performed with custom algorithms in IgorPro. Cells with baseline levels ±2 SD above the mean were excluded from analysis as unhealthy. Responders were designated as cells whose 340/380 ratio was ≧20% above baseline.
# TRP channels are selectively activated by endogenous and exogenous ligands at micromolar to millimolar concentrations. Since TRP channel activity increases over this range to allow graded Ca^2+ influx, receptor activity levels can be monitored by live-cell Ca^2+ imaging. A ratiometric calcium indicator (Fura-2) was employed to determine whether a panel of TRP-channel agonists elicited cytoplasmic calcium increases in human epidermal keratinocytes. (FIG. 1A-1E, FIG. 2A-2B, and Table 3).
# Normal human keratinocytes were cultured in low-calcium media to promote proliferation or in 1.2-mM calcium media to induce differentiation. For live-cell imaging, keratinocytes were then washed and bathed in Ringer's solution containing 2 mM calcium so that calcium signals could be directly compared between cell populations.
# In keratinocytes, increased intracellular calcium stimulates the terminal differentiation process. To determine whether camphor oil and its abundant constituents are directly bioactive on epithelial keratinocytes, a ratiometric Ca2+ indictor (Fura-2) was employed to test whether a panel of terpenes elicited cytoplasmic Ca2+ increases in undifferentiated human epidermal keratinocytes (FIG. 19A-19C). Keratinocytes were cultured according to our standard methods. For live-cell imaging, keratinocytes were bathed in Ringer's solution containing 2 mM Ca2+.
# [2] = 0.5 to 5 percent ointment or liquid, once or twice a day for two to four weeks; cited from earlier work
# [3] = test system: normal human keratinocytes; experiment: Keratinocyte cell counts (DAPI), morphology and EdU proliferation assay after 24 h treatment; conditions: in the presence of camphor
# Method: as §1
# Cells were treated with 2-APB or camphor for 24 hours at 37° C., exposed to EdU for 45 min, fixed and stained with DAPI for cell counting. EdU Click-It assays (Invitrogen) were used to assess cell-cycle entry. The cells were then fixed and stained with DAPI. Three fields per well were assayed via a 20× objective and there were 4 wells per treatment in each experiment. EdU=5-ethynyl-2′-deoxyuridine.
# As Ca^2+ triggers the commitment switch from proliferation to differentiation in keratinocytes, it was reasoned that increasing intracellular calcium by incubating keratinocytes in TRP agonists might be sufficient to induce this cell-fate switch in low-calcium growth media. To test this hypothesis, normal human keratinocytes were cultured for 24 hours under low-Ca^2+ conditions in the presence of low (12.5 μM), half-maximal (50 μM) and saturating (100 μM) concentrations of 2-APB (FIG. 3A) or camphor (0-8 mM) (FIG. 3E). These TRP agonists were chosen because they reliably elicited intracellular calcium signaling in normal human keratinocytes (FIG. 1A-1E).
# As camphor can activate both TRPV3 and TRPV1 channels, these experiments were repeated in the presence of a specific TRPV1 antagonist, AMG-9810 (Gavva et al., 2005).
# [4] = test system: TRPV3; conditions: reported in literature; cited from earlier work
# [5] = test system: skin tumors; conditions: mouse, in vivo; cited from earlier work
# [6] = test system: precancerous lesions and SCCs; assay type: in vivo; conditions: 20% wt/wt in acetone, topical once daily, five weeks
# [7] = test system: normal keratinocytes; experiment: In vivo keratinocyte proliferation (EdU, flow cytometry) in healthy mouse skin; parameters: species or system mice; conditions: 20% topical, five consecutive days
# Method: Age matched FVB (female mice purchased from Jackson labs) aged 6-8 weeks were shave on their dorsal sides. Mice were then treated for five consecutive days with vehicle, 20% camphor white oil, 20% eucalyptol, 20% α-pinene, 20% dipentene, or 20% γ-terpinene (2-6 mice per group). Mice were then injected with EdU and sacrificed one hour later. The epidermis was isolated and stained for Itgα6, Sca1+, and EDU. Itgα6+Sca1+EdU+ cells were then identified on a flow cytometer.
# To test whether effects of camphor white oil on normal keratinocytes are TrpV3 dependent proliferation in TrpV3 mutant and wild type mice treated with camphor oil was analyzed. TrpV3 mutant and wild type mice aged 6-8 weeks were shaved on their dorsal sides. Mice were then treated for five consecutive days with vehicle or 20% camphor oil (4-5 mice per group). Mice were then injected with EdU (5-ethynyl-2′-deoxyuridine) and sacrificed one hour later. The epidermis was isolated and stained for Itga6, Sca1, and EdU. Itga6+Sca1+EdU+ cells were then identified on a flow cytometer to identify cells in the intrafollicular epidermis that are actively proliferating.
# [8] = responders F340:F380 increase ≧20%
smiles,measurement,setting,value
"CCCCCCCCCC(=O)O[C@@H]1[C@@H](C)[C@@]2(O)[C@@H](C=C(CO)C[C@@]3(O)C(=O)C(C)=C[C@@H]23)[C@@H]2C(C)(C)[C@]12OC(=O)CCCCCCCCC [4αPDD, 4α-phorbol-12,13 didecanoate, reference compound]",% Responders (differentiated) Mean ± SEM,"[1]; differentiated in 1.2 mM Ca2+, responders F340:F380 increase ≧20%, 4αPDD 3 μM, camphor 10 mM, 2-APB 100 μM",70.8 ± 11.1%
same,% Responders (undifferentiated) Mean ± SEM or SD,[1]; [8],84.8 ± 1.6%
same,keratinocytes with robust increases in intracellular Ca2+,[1]; growth or differentiation conditions,> 70%
O=c1[nH]cc(F)c(=O)[nH]1 [5-fluorouracil],cure rates,[2],up to 93%
"CC(C)(C)c1ccc(/C=C/C(=O)Nc2ccc3c(c2)OCCO3)cc1 [AMG-9810, (E)-3-(4-t-butylphenyl)-N-(2,3-dihydrobenzo[b][1,4]dioxin-6-yl)acrylamide, reference compound]",effect of TRPV1 inhibition on camphor's effects on keratinocyte proliferation,[3],did not alter
"CC1(C)C2CCC1(C)C(O)C2 (centres unmarked) [Borneol, reference compound]",effectiveness as a TRPV3 agonist relative to camphor,[4],more effective than camphor
"COc1cc(CNC(=O)CCCC/C=C/C(C)C)ccc1O [Capsaicin, reference compound]",% Responders (undifferentiated) Mean ± SEM or SD,[1]; [8],2.3+/−2.6%
"CC1(C)C2CCC1(CS(=O)(=O)O)C(=O)C2=Cc1ccc(C=C2C(=O)C3(CS(=O)(=O)O)CCC2C3(C)C)cc1 [Ecamsule, Terephthalylidene Dicamphor Sulfonic Acid]",Results of safety: against skin tumors in mice,[5],Protects
"C=CCN=C=S [Mustard oil, reference compound]",% Responders (undifferentiated) Mean ± SEM or SD,[1]; [8],0.6 ± 1.2%^
same,% Responders (undifferentiated) Mean ± SEM or SD,"[1]; responders F340:F380 increase ≧20%, listed as Mustard Oil",0.6+/−1.2%
same,% Responders (undifferentiated) Mean ± SEM or SD,"[1]; responders F340:F380 increase ≧20%, listed as mustard oil",0.6+/−1.2%
"C=C(C)[C@H]1CC=C(C)CC1 [dipentene, Dipentene]",premalignant tumors per mouse versus vehicle,[6],antitumor effects
same,premalignant tumors per mouse versus vehicle,[6]; listed as Dipentene,most striking tumor reductions
same,keratinocyte proliferation (Itgα6+Sca1+EdU+ cells) compared with vehicle,[7],significant increases
"CC12CCC(CC1)C(C)(C)O2 [eucalyptol, Eucalyptol]",cytoplasmic Ca2+ signals in undifferentiated keratinocytes,[1],no effects
same,keratinocyte proliferation (Itgα6+Sca1+EdU+ cells) compared with vehicle,[7],significant increases
"CC1=CCC2CC1C2(C)C (stereo not drawn) [α-pinene, α-Pinene]",cytoplasmic Ca2+ signals in undifferentiated keratinocytes,[1],stimulated detectable calcium signals; also recorded: induced calcium increases
same,premalignant tumors per mouse versus vehicle,[6],antitumor effects; also recorded: most striking tumor reductions
same,keratinocyte proliferation (Itgα6+Sca1+EdU+ cells) compared with vehicle,[7],significant increases
"CC1=CCC(C(C)C)=CC1 [γ-terpinene, γ-Terpinene]",keratinocyte proliferation (Itgα6+Sca1+EdU+ cells) compared with vehicle,[7],significant increases
